# Data as given in patent publication US8017557B2, “Benzodioxole derivatives as modulators of proteolytic activity in plants” (Endura S.p.A., priority 2002, dated 2011).
# Like-named read-outs stand apart in the source and are kept apart here.
# Test system: endopeptidase activity in cotton sprouts
# Settings: for absorbance reading, Mean, Cotton Sprouts Treated with PBO / absorbance reading, replicate 1, Cotton Sprouts Treated with PBO / absorbance reading, replicate 2, Cotton Sprouts Treated with PBO / absorbance reading, replicate 3, Cotton Sprouts Treated with PBO / Endopeptidase Activity (U × 10^3), Cotton Sprouts Treated with PBO: pH 7.7; for absorbance reading, Mean, Cotton Sprouts Treated with PBO / absorbance reading, replicate 1, Cotton Sprouts Treated with PBO / absorbance reading, replicate 2, Cotton Sprouts Treated with PBO / absorbance reading, replicate 3, Cotton Sprouts Treated with PBO / % difference of endopeptidase activity, treated vs untreated / Endopeptidase Activity (U × 10^3), Cotton Sprouts Treated with PBO: 4 days of germination, PBO 1% w/v; for Δ U (endopeptidase activity, untreated vs PBO treated): same scale as Activity (U × 10^3)
# Description: The extent of hydrolytic activity in cotton sprouts was measured at 15′, 30′, 60′, 90′ and 120′ after solubilization of the acetonic powder in aqueous buffer at pH 7.7 by determining the absorbance at 280 nm in a quartz cuvette after protein precipitation with TCA and removal by centrifugation. Each series of analysis was performed in […]. The comparison between the values of […] activity in treated (dark grey) and untreated (light grey) samples was done using the average value of each series of analysis. Abscissa: time (min); ordinate: Abs 280 nm.
# The basic idea was to “freeze” the physiologic protein hydrolysis enzymatic activity and to re-establish the process simply solubilizing the proteolytic enzymatic system in suitable buffers, which were 0.1 M phosphate pH 6.5 and 0.1 M tris-HCl pH 7.7, for evaluating both the carboxypeptidase and the endopeptidase activities according to the method described by Hile et al. 1972; Funkhouser et al. 1980.
# Cotton seeds (cv. Carmela) were obtained from “Semillas Battle”, Barcelona (E).
# The seeds were previously rinsed in tap water and then imbibed with aeration in distilled water over night (Funkhouser, E. A. et al., Z. Pflanzenphysiol., 1980, 100, 319-324).
# The plastic boxes containing seeds were covered by a plastic film and placed in a germinator in the dark for 4 days at 30° C. as described in Hile, J. N. and Dure, L. S. J. Biol. Chem., 1972, 247: 5034-5040.
# The cotton sprouts of 4 days were collected and frozen in liquid nitrogen and freeze dried (Hile et al. 1972). After this process, the material was crushed in a pestle and freed from fibrous material and settled up to obtain a pretty homogeneous meal of about 0.5 mesh.
# The meals were defatted using n-hexane (1:10 w/v) at room temperature and then treated with acetone at −20° C. to remove pigments and polyphenolic compounds, in this case mainly gossypol. The powders obtained were stored in a dry box at room temperature.
# The acetonic powder (30 mg) was suspended in buffer (4 ml) and incubated at 37° C. for 15′, 30, 60, 90, 120 minutes. The proteolysis was stopped adding 1 ml of 12% trichloroacetic acid. In this case the buffer used was 0.1 M phosphate pH 7.7 (Funkhouser et al. 1980). The control was a suspension of the same sample prepared in the same way but was immediately deactivated, adding up 1 ml of trichloroacetic acid. The trials with treated and untreated samples were carried out at the same time.
# Proteins were precipitated with trichloroacetic acid and then removed by filtration, before with Whatman paper n. 4 and then by micro-filtration (Orange Scientific Braine I'Alleud, Belgium (Ø0.2 μm)). Finally, the hydrolyzed protein samples were analyzed as clear solutions by determining the absorbance at 280 nm in a quartz cuvette.
# Each series of analysis was performed threefold. The comparison between the values of endopeptidase activity of treated and untreated samples was done using the average value of each series of analysis.
# [1] = Time 0 (immediately deactivated)
compound,measurement,setting,value
"CCCCOCCOCCOCc1cc2c(cc1CCC)OCO2 [PBO, 5-[[2-(2-Butoxyethoxy)ethoxy]methyl]-6-propyl-1,3-benzodioxole]",endopeptidase activity in PBO treated cotton sprouts,"FIG. 5, treated vs untreated cotton sprouts",lower than in the untreated ones
same,"absorbance reading, Mean, Cotton Sprouts Treated with PBO",[1],868.00
same,"absorbance reading, replicate 1, Cotton Sprouts Treated with PBO",[1],821.00
same,"absorbance reading, replicate 2, Cotton Sprouts Treated with PBO",[1],897.00
same,"absorbance reading, replicate 3, Cotton Sprouts Treated with PBO",[1],886.00
same,"% difference of endopeptidase activity, treated vs untreated",Time 15′,47.86%
same,"Endopeptidase Activity (U × 10^3), Cotton Sprouts Treated with PBO",Time 15′,50.67 U × 10^3
same,"absorbance reading, Mean, Cotton Sprouts Treated with PBO",Time 15′,918.67
same,"absorbance reading, replicate 1, Cotton Sprouts Treated with PBO",Time 15′,965.00
same,"absorbance reading, replicate 2, Cotton Sprouts Treated with PBO",Time 15′,876.00
same,"absorbance reading, replicate 3, Cotton Sprouts Treated with PBO",Time 15′,915.00
same,"Δ U (endopeptidase activity, untreated vs PBO treated)",Time 15′,46.50 U
same,"% difference of endopeptidase activity, treated vs untreated",Time 30′,29.00%
same,"Endopeptidase Activity (U × 10^3), Cotton Sprouts Treated with PBO",Time 30′,82.00 U × 10^3
same,"absorbance reading, Mean, Cotton Sprouts Treated with PBO",Time 30′,950.00
same,"absorbance reading, replicate 1, Cotton Sprouts Treated with PBO",Time 30′,965.00
same,"absorbance reading, replicate 2, Cotton Sprouts Treated with PBO",Time 30′,935.00
same,"absorbance reading, replicate 3, Cotton Sprouts Treated with PBO",Time 30′,950.00
same,"Δ U (endopeptidase activity, untreated vs PBO treated)",Time 30′,33.50 U
same,"% difference of endopeptidase activity, treated vs untreated",Time 60′,12.86%
same,"Endopeptidase Activity (U × 10^3), Cotton Sprouts Treated with PBO",Time 60′,148.00 U × 10^3
same,"absorbance reading, Mean, Cotton Sprouts Treated with PBO",Time 60′,1016.00
same,"absorbance reading, replicate 1, Cotton Sprouts Treated with PBO",Time 60′,1038.00
same,"absorbance reading, replicate 2, Cotton Sprouts Treated with PBO",Time 60′,1038.00
same,"absorbance reading, replicate 3, Cotton Sprouts Treated with PBO",Time 60′,972.00
same,"Δ U (endopeptidase activity, untreated vs PBO treated)",Time 60′,21.83 U
same,"% difference of endopeptidase activity, treated vs untreated",Time 90′,28.80%
same,"Endopeptidase Activity (U × 10^3), Cotton Sprouts Treated with PBO",Time 90′,127.33 U × 10^3
same,"absorbance reading, Mean, Cotton Sprouts Treated with PBO",Time 90′,995.33
same,"absorbance reading, replicate 1, Cotton Sprouts Treated with PBO",Time 90′,1015.00
same,"absorbance reading, replicate 2, Cotton Sprouts Treated with PBO",Time 90′,991.00
same,"absorbance reading, replicate 3, Cotton Sprouts Treated with PBO",Time 90′,980.00
same,"Δ U (endopeptidase activity, untreated vs PBO treated)",Time 90′,51.50 U
same,"% difference of endopeptidase activity, treated vs untreated",Time 120′,22.48%
same,"Endopeptidase Activity (U × 10^3), Cotton Sprouts Treated with PBO",Time 120′,129.33 U × 10^3
same,"absorbance reading, Mean, Cotton Sprouts Treated with PBO",Time 120′,997.33
same,"absorbance reading, replicate 1, Cotton Sprouts Treated with PBO",Time 120′,1017.00
same,"absorbance reading, replicate 2, Cotton Sprouts Treated with PBO",Time 120′,960.00
same,"absorbance reading, replicate 3, Cotton Sprouts Treated with PBO",Time 120′,1015.00
same,"Δ U (endopeptidase activity, untreated vs PBO treated)",Time 120′,37.50 U
